Source: US20130096028A1, “CELL CAPABLE OF EXPRESSING TSLP CONSTANTLY AND AT HIGH LEVEL, AND METHOD FOR SCREENING FOR TSLP MODULATOR UTILIZING THE CELL” (TOHOKU UNIVERSITY, priority 2010, published 2013)

Columns and labels:
[1] = test system: TSLP production of KCMH-1 cell; assay: TSLP production of KCMH-1 cells, TSLP in culture supernatant quantified by ELISA; type: cell-based, mouse; details: BAY11-7082 10 μM, 24 hours, ELISA (FIG. 5)
Description: The KCMH-1 cells were suspended at a concentration of 1×10^5 cells/ml in an MEMU medium containing 10% FBS. 0.5 ml of the cell suspension was inoculated to each well of a 24-well cluster dish. 24 hours later, the medium was removed, and the cells were washed with phosphate-buffered saline (PBS). Then, 0.5 ml of an MEMU medium containing 10% FBS and each concentration of dexamethasone (0.1 or 1 μM) or FK506 ([…]) was added to the cells. 24 hours later, the culture solution was collected, and TSLP in the supernatant was quantified by ELISA (FIG. 2).
The KCMH-1 cells were suspended at a concentration of 1×10^5 cells/ml in an MEMU medium containing 10% FBS. 0.5 ml of the cell suspension was inoculated to each well of a 24-well cluster dish. […] 24 hours later, the culture solution was collected, and TSLP in the supernatant was quantified by ELISA (FIG. 3).
The KCMH-1 cells were suspended at a concentration of 1×10^5 cells/ml in an MEMU medium containing 10% FBS. […] 24 hours later, the culture solution was collected, and TSLP in the supernatant was quantified by ELISA (FIG. 4).
The KCMH-1 cells were suspended at a concentration of 1×10^5 cells/ml in an MEMU medium containing 10% FBS. […] 24 hours later, the culture solution was collected, and TSLP in the supernatant was quantified by ELISA (FIG. 5).

human TSLP mRNA = details: human airway epithelial cell lines; cited from earlier work

Cc1ccc(S(=O)(=O)/C=C/C#N)cc1 [BAY11-7082]
TSLP production in the KCMH-1 cells [1]: partially inhibited

CC1=C(/C=C/C(C)=C\C=C\C(C)=C\C(=O)O)C(C)(C)CCC1 [9-cis-retinoic acid]
expression of human TSLP mRNA by IL-1β (human TSLP mRNA): inhibits
